Results from patent EP4380572B1, “FORMULATION FOR SUBSTITUTED 2-AMINOTHIAZOLES IN THE TREATMENT OF FUNGAL AND FUNGAL-BACTERIAL INFECTIONS OF THE NAIL” (OnychoPharm GmbH, priority 2021, dated 2023).

Assays:
[1] = Solubility of abafungin in different solvents (saturated solution, UV at 302 nm); format: physicochemical; settings: shaken 24 h, 19°C
Method: 2 ml of solvent were placed in a glass vial containing abafungin powder. The vial was mechanically shaken for 24 h in an environment with controlled temperature (19°C). Thereafter the content of the vials was transferred into Eppendorf tubes and centrifuged at 13000 rpm for 3 min. The supernatant (saturated solution) was collected and assayed using a UV spectrometer at 302 nm (λmax of abafungin). […] Drug concentration in the saturated solution (or diluted solution) was then determined using a standard curve (Table 2). Each experiment was conducted in triplicates. […]

[2] = cited from earlier work; for stability of the crystalline form: anhydrate polymorphic crystalline forms described in EP 0 718 296 A1

SMILES | Solubility mg/100 ml mean ± standard deviation ([1]; solvent 1,2-propanediol) | Solubility mg/100 ml mean ± standard deviation ([1]; solvent DMSO) | Solubility mg/100 ml mean ± standard deviation ([1]; solvent N-methyl pyrrolidone) | Solubility mg/100 ml mean ± standard deviation ([1]; solvent PEG600) | Solubility mg/100 ml mean ± standard deviation ([1]; solvent butyl acetate) | Solubility mg/100 ml mean ± standard deviation ([1]; solvent ethanol) | Solubility mg/100 ml mean ± standard deviation ([1]; solvent ethyl acetate) | Solubility mg/100 ml mean ± standard deviation ([1]; solvent isopropanol myristate) | Solubility mg/100 ml mean ± standard deviation ([1]; solvent isopropanol) | Solubility mg/100 ml mean ± standard deviation ([1]; solvent water) | stability of the crystalline form [2] | stability at high humidity ([2]; 85% relative humidity, over months)
Cc1ccc(Oc2ccccc2-c2csc(N=C3NCCCN3)n2)c(C)c1 [abafungin, 4-[2-(2,4-dimethylphenoxy)phenyl]-N-(1,4,5,6-tetrahydropyrimidin-2-yl)-1,3-thiazol-2-amine] | 219.93 ± 12.10 mg/100 ml | 4483.42 ± 16.30 mg/100 ml | 27678.92 ± 434.07 mg/100 ml | 5029.70 ± 12.70 mg/100 ml | 822.13 ± 2.55 mg/100 ml | 238.46 ± 2.72 mg/100 ml | 803.75 ± 35.51 mg/100 ml | 50.60 ± 4.30 mg/100 ml | 156.14 ± 16.5 mg/100 ml | < 0.032 mg/100 ml |  | 
Cc1ccc(Oc2ccccc2-c2csc(N=C3NCCCN3)n2)c(C)c1 [modification 1] |  |  |  |  |  |  |  |  |  |  | metastable | 
Cc1ccc(Oc2ccccc2-c2csc(N=C3NCCCN3)n2)c(C)c1 [modification 2] |  |  |  |  |  |  |  |  |  |  | photochemically and thermodynamically more stable | stable
